According to patent publication US20160367578A1, “METHODS AND COMPOSITIONS FOR ERADICATING LEUKEMIC CELLS” (priority 2013, published 2016):
“Also recorded” adds a separate entry of the source. Like-named read-outs stand apart in the source and are kept apart here.

What was measured:
[1] = tested on: human APL cell line HL60; experiment: HL60 viability (flow cytometry) and colony formation after CBX; format: cell-based; settings: viability 16 hours, colony formation 7 days post exposure
[2] = tested on: MLL-AF9 cells (murine leukemic cancer stem cells); experiment: Colony formation assay (CFU-C) on MLL-AF9 cells; format: cell-based, mouse
[3] = tested on: primary bone marrow leukocytes or primary peripheral blood leukocytes; experiment: Viability of normal primary leukocytes exposed to CBX, alone or in 1:1 mixtures (7AAD FACS); format: cell-based, mouse; design: sensitivity of wild type primary leukocytes from BM or PB: dose or concentration left out as unconfirmed; settings: for effect on normal counterparts in 1:1 mixtures with different AML cells: MLL-AF9 clone A/B or HoxA9/Meis1 mixtures
Protocol: Cells were distinguished by Cd45.1/CD45.2 expression and cell viability was determined by % of 7AAD-negative cells, in FACS analysis.
(§1) We then asked how blockage of gap junction intercellular communication affects AML cells, without additional treatment. […] In order to exclude the possibility of clone specific effects, we have repeated the experiments with a different MLL-AF9 clone, generated independently, and also included HoxA9/Meis1 AML cells that represent a different type of AML.

[4] = tested on: normal bone marrow mononuclear cells (BM-MNC); experiment: Normal bone marrow mononuclear cells in 1:1 mixture with MLL-AF9 cells after CBX; format: cell-based, mouse; settings: CBX vs PBS
[5] = tested on: human AML cell line HL60; experiment: Neutrophil differentiation (CD66b+/CD14-) by FACS in HL60; format: cell-based; settings: HL60, 16 hours
[6] = tested on: murine AML cells (MLL-AF9 clone A, MLL-AF9 clone B, HoxA9/Meis1 cells); experiment: Viability of murine AML cells in 1:1 mixtures with normal leukocytes exposed to CBX for 16 hours; format: cell-based, mouse
Protocol: Cells were distinguished by Cd45.1/CD45.2 expression and cell viability was determined by % of 7AAD-negative cells, in FACS analysis. (*p<0.01).
Cells were distinguished by CD45.1/CD45.2 expression and cell viability was determined by % of 7AAD-negative cells, in FACS analysis (*p<0.01).
as §1

[7] = tested on: bone marrow primary leukocytes (normal stem cells); experiment: Colony formation assay (CFU-C) on bone marrow primary leukocytes; format: cell-based, mouse; settings: increasing concentrations of carbenoxolone
[8] = tested on: MLL-AF9 leukemia; design: autopsy finding: dose or concentration left out as unconfirmed
[9] = tested on: freshly isolated primary human leukocytes; experiment: Neutrophil differentiation (CD66b+/CD14-) by FACS in primary human leukocytes; format: cell-based; settings: 16 hours
[10] = tested on: primary MLL-AF9 cells; experiment: Differentiation assay, Gr-1 and Mac-1 expression in primary MLL-AF9 cells; format: cell-based, mouse; design: dose or concentration left out as unconfirmed; settings: CBX for 16 hours; for differentiation of MLL-AF9 cells: Gr-1/Mac-1 expression
Protocol: Cell viability was determined by % of 7AAD-negative cells, in FACS analysis. (*p<0.01).
MLL-AF9 AML cells are undifferentiated myeloid progenitors that express both Gr-1 and Mac-1 antigens, whereas mature myeloid cells express either Gr-1 (granulocytes) or Mac-1 (macrophages).

[11] = 75 mg/kg CBX in combination with chemotherapy

For CC1(C)[C@@H](OC(=O)CCC(=O)O)CC[C@]2(C)[C@H]3C(=O)C=C4[C@@H]5C[C@@](C)(C(=O)O)CC[C@]5(C)CC[C@@]4(C)[C@]3(C)CC[C@@H]12 [CBX, Carbenoxolone], the “sensitivity of HL60” value [1] was “sensitive”, the “effect on malignant vs. normal immature stem and progenitor cells (CFU-C)” value ([2]; CBX at greater than or equal to 50 μM) was “differential effect” and the “effect on murine leukemic cancer stem cells (CFU-C)” value ([2]; increasing concentrations of carbenoxolone) was “eradicates murine leukemic cancer stem cells”. The “cytotoxic effects on normal cells” value [3] was “no cytotoxic effects”, the “effect on normal BM leukocytes in 1:1 mixture with MLL-AF9” value ([3]; CBX as high as 400 μM, 16 hours) was “without affecting the normal cells” and the “eradication of normal blood cells” value ([3]; CBX at greater than or equal to 100 μM, 16 hours) was “not the eradication of normal blood cells”. For the same compound, the “sensitivity of wild type primary leukocytes from BM or PB” value ([3]; CBX even at high concentration, 16 hours) was “not sensitive”, the “effect on normal counterparts in 1:1 mixtures with different AML cells” value ([3]; 16 hours) was “without affecting normal cells; also recorded: without affecting non-leukemic normal counterparts” and the “effect on normal counterparts in 1:1 mixtures with different AML cells” value ([3]; 16 hours, listed as carbenoxolone) was “without affecting non-leukemic normal counterparts”. For the same compound, the “replenishment of normal healthy cells” value [4] was “enhances the replenishment of normal healthy cells”, the “neutrophil differentiation (CD66b+/CD14−)” value [5] was “induces rapid (within 16 hours) neutrophil differentiation” and the “eradication of different murine AML cells” value [6] was “selectively eradicates”. The “eradication of different murine AML cells” value ([6]; listed as Carbenoxolone) was “selective eradication”, the “eradication of different murine AML cells” value ([6]; listed as carbenoxolone) was “selectively eradicates” and the “effect on normal stem cells (CFU-C)” value [7] was “inducing proliferation of normal stem cells”. The CBX-treated mice survived ([8]; 25 mg/kg CBX alone or in combination with induction chemotherapy) was 40%-60%, the “survival vs PBS and chemotherapy controls” value ([8]; 25 mg/kg CBX in combination with induction chemotherapy) was “no statistically significant difference in survival” and the CBX-treated mice survived ([8]; 50 mg/kg CBX alone) was 20%. The survival ([8]; 50 mg/kg CBX alone) was “early mortality with no statistically significant difference”, the “survival vs PBS and chemotherapy controls” value ([8]; 50 mg/kg CBX in combination with chemotherapy) was “significant increased survival” and the “survival vs PBS controls” value ([8]; 75 mg/kg CBX alone) was “significant increased survival”. For the same compound, the CBX-treated mice survived [8, 11] was 20%, the survival [8, 11] was “early mortality with no statistically significant difference” and the “adverse effect of prolonged administration” value ([8]; SC, daily, 14 days) was “lethal pseudo-hyperadlosteronism with no sign of leukemia”. For the same compound, the “autopsy, signs of leukemia” value ([8]; chemotherapy plus 50 mg/kg CBX) was “no signs of leukemia”, the autopsy finding ([8]; mouse that died at day 28 after CBX treatment) was “gastric edema” and the “adverse effect of chronic systemic exposure” value ([8]; mouse, in vivo) was “acute lethal pseudo-hyperaldosteronism in some case”. The early mortality ([8]; mouse, in vivo) was “early mortality due to acute lethal pseudo-hyperadlosteronism”, the “cause of early mortality” value ([8]; mouse, in vivo, sc) was “most likely induced by acute pseudo-hyperaldosteronism, and not by leukemia” and the survival ([8]; mouse, in vivo, sc, 50 mg/kg) was “prolonged survival”. The survival ([8]; mouse, in vivo, sc, 75 mg/kg) was “prolonged survival”, the “neutrophil differentiation (CD66b+/CD14−)” value [9] was “does not induce neutrophil differentiation” and the “toxicity to MLL-AF9 cells” value [10] was “not toxic to the cells”. For the same compound, the “differentiation of MLL-AF9 cells” value [10] was “induces their differentiation into mature granulocytes” and the “differentiation of MLL-AF9 cells” value ([10]; listed as carbenoxolone) was “promotes differentiation of AML cells into short-lived granulocytes”.
